# Read-outs that look alike come from different tables or passages of the source.
# Experiments:
# HeLa S3 cells = test: Cell growth inhibition test on HeLa S3 cells; format: cell-based; conditions: Homo sapiens, read-out: IC50, cell growth inhibition activity upon HeLa S3 cells
# Procedure: Cell Growth Inhibition Test on HeLa S3 Cells
# HeLa S3 cells which have been adjusted to 3.0×10^4 cells/ml with MEM medium (manufactured by Nissui Pharmaceutically containing 10% fetal calf serum and 2 mM […] were dispensed in 0.1 ml/well portions into a 96 well microtiter plate. The cells were cultured at 37° C. for 20 hours in a carbon dioxide gas incubator, the culture supernatant was removed and then the plate was washed once with physiological saline. Next, 0.1 ml of the medium containing each test compound was added to each well, and the cells were cultured at 37° C. for 72 hours in the carbon dioxide gas incubator. After removing the culture supernatant, 0.1 ml of the medium containing 0.02% Neutral Red was added to each well, and the cells were stained at 37° C. for 1 hour in the carbon dioxide gas incubator. After removing the culture supernatant, the plate was washed once with physiological saline, the pigment was extracted with 0.001 N hydrochloric acid/30% ethanol and then absorption at 550 nm was measured by a microplate reader. The concentration of each test compound which inhibits 50% of the cell growth (IC50) was calculated by comparing the absorption of un-treated cells with that of the cells treated with known concentration of each sample.
# P388 leukemia = test: Antitumor test on P388 leukemia; format: in vivo, mouse; conditions: CDF1 mice, 1×10^6 P388 cells i.p., compound into abdominal cavity 24 hours after transplantation, 30 days; dose not given
# Procedure: Antitumor Test on P388 Leukemia
# The ascitic fluid was collected from the abdominal cavity of P388 ascites-induced mouse (DBA/2) 7 days after the transplantation. The number of P388 cells in the ascitic fluid was counted to prepare a tumor cell suspension of 5×10^6 cells/ml using sterilized physiological saline, and its 0.2 ml portion (containing 1×10^6 cells) was transplanted into the abdominal cavity of CDF1 mice having 20 to 25 g in body weight. […] Effects of the test compounds were judged by the ratio of average survival days in the test compound-administered group to that in the control group (un-treated group) (increased life span, ILS %).
# sarcoma 180 solid tumor = test: Antitumor test on sarcoma 180 solid tumors; format: in vivo, mouse; conditions: ddY mice, intravenous injection 24 hours after s.c. transplantation, tumor volume at 7 days; dose not given
# Procedure: Antitumor Test on Sarcoma 180 Solid Tumors
# Seven days after transplantation of 5×10^6 of sarcoma 180 cells into the abdominal cavity of a ddY mouse, the cells were collected from the ascitic fluid, washed once with sterilized physiological saline and then made into a cell suspension of 5×10^7 cells/ml using sterilized physiological saline. A 0.1 ml portion of the cell suspension was transplanted under the skin of the right side axillary part of ddY mice of 20±2 g in body weight and, after 24 hours of the tumor transplantation, 0.1 to 0.2 ml of each test compound dissolved in physiological saline or polyoxyethylene sorbitan monolaurate-containing physiological saline was administered by intravenous injection to ddY mice of 5 animals per group. The major axis (a) and the minor axis (b) of each tumor 7 days after the transplantation were measured to calculate the tumor volume as an a×b^2 /2 value. Antitumor activity of each test compound was expressed by the ratio (T/C) of the tumor volume (T) of the test compound-administered group to the tumor volume (C) of the control group in which the drug was not administered.
# [1] = system: Candida albicans ATCC 10231; test: Antibacterial activity test (agar dilution method); format: cell-based; conditions: ATCC10231, pH 7, Candida albicans ATCC 10231, read-out: Minimum growth inhibition concentration (MIC), CA
# Procedure: (§1) Antibacterial Activity Test
# (§2) the antibacterial activity was measured by an agar dilution method using a medium (pH 7) which has been prepared by dissolving 3 g of Bacto-Tryptone (manufactured by Difco), 3 g of meat extract, 1 g of yeast extract, 1 g of flucose and 16 g of agar in 1 l of water. The antibacterial activity was expressed by minimum growth inhibition concentration (MIC).
# CA: Candida albicans ATCC 10231
# [2] = system: Eacillus subtilis No. 10707; test: Antibacterial activity test (agar dilution method); format: cell-based; conditions: pH 7, Eacillus subtilis No. 10707, read-out: Minimum growth inhibition concentration (MIC), BS
# Procedure: as §1, §2
# BS: Eacillus subtilis No. 10707
# [3] = system: Enterococcus hirae ATCC 10541; format: cell-based; conditions: pH 7
# Procedure: as §1, §2
# EH: Enterococcus hirae ATCC 10541
# [4] = system: intracellular tyrosine kinase (v-Src tyrosine kinase, SR-3Y1 cells); test: Inhibition test of intracellular tyrosine kinase (tyrosine phosphorylation, Western blotting, SR-3Y1 cells); format: cell-based; conditions: Rattus norvegicus, SR3Y1, 37° C., 15 hours, tyrosine-phosphorylated protein, read-out: IC50, inhibitory activity of intracellular tyrosine kinase
# Text: The inhibitory effect of the tyrosine kinase activity can be measured by carrying out Western blotting analysis with an anti-phosphotyrosine antibody using a rat fibroblast cell strain SR-3Y1 transformed with an oncogene v-Src (available from RIKEN Gene Bank) and calculating the amount of intracellular protein in which tyrosine is phosphorylated. Since the tyrosine phosphorylation level of intracellular protein in SR-3Y1 cells for use in this method is increased by v-Src tyrosine kinase, the ability of radicicol derivatives to inhibit v-Src tyrosine kinase can be detected as reduction of the amount of protein in which tyrosine is phosphorylated. Robinson, S. P. et al. [International Journal of Oncology, 2, 253 (1993)] report a method for examination of tyrosine phosphorylation inhibition effect by Western blotting analysis, and Kwon, H. J. et al. [Cancer Research, 52, 6926 (1992)] report examples of experiment using SR-3Y1 cells.
# Inhibition Test of Intracellular Tyrosine Kinase
# SR-3Y1 cells were cultured at 37° C. for 15 hours in an atmosphere of 5% carbon dioxide, using Dulbecco's modified Eagle's medium (DMEM) containing 10% fetal calf serum (FCS), to which each radicicol derivative to be tested has been added in varied concentration. The thus cultured cells were lysed at 4° C. for 20 minutes in a cooled buffer solution for lysis use (50 mM Tris HCl, pH 7.5, 150 mM NaCl, 1% Triton X-100, 0.1% SDS, 1% sodium deoxycholate, 2 mM EDTA, 1 mM PMSF, 20 μM leupeptin, 0.15 unit/ml aprotinin, 1 mM Na3 VO4) and then centrifuged at 20,000 g for 30 minutes. After measuring protein concentration in the resulting supernatant fluid, samples were adjusted to the same protein quantity per lane to carry out separation of protein by SDS-PAGE. The thus separated protein samples were transferred onto a nitrocellulose membrane to which were subsequently added a mouse […] phosphotyrosine antibody MX-pTYR (Kyowa Medex Co., Ltd.) as a first antibody and a horseradish peroxidase-conjugated […] (BIO-RAD Co.) as a second antibody, thereby effecting their reactions with the protein samples on the membrane. Detection was carried out using ECL reagent (Amersham Co.), and the amount of tyrosine-phosphorylated protein was determined by scanning the density of banks obtained on an X-ray film. The activity of radicicol derivative to inhibit tyrosine phosphorylation can be shown as a concentration (IC50) of each derivative by which the ratio of tyrosine-phosphorylated protein is reduced to half in comparison with a control to which the drug is not added.
# T cell growth = T cell growth inhibition test by mixed mouse lymphocyte culture reaction; format: cell-based; conditions: 72 hours, 37° C., [^3 H]-thymidine incorporation, AKR spleen / B10.BR lymph node cells
# Procedure: T Cell Growth Inhibition Test by Mixed Mouse Lymphocyte Culture Reaction
# The spleen was excised aseptically from an AKR mouse (Japan SLC Co., Ltd.) and made into a single cell suspension. The suspension was mixed with mitomycin C (MMC) (Kyowa Hakko Kogyo Co., Ltd.) (final concentration, 50 μg/ml) and cultured at 37° C. for 30 minutes. After the culturing, the cells were washed three times with a solution (HBSS) prepared by adding 2.5% fetal calf serum (FCS, Gibco Co.) to Hanks' balanced salt solution (Gibco Co.) and then adjusted to a density of 1×10^7 cells/ml.
# A 50 μl portion of B10.BR mouse (Japan SLC Co., Ltd.) lymph node cell suspension (containing 1.5×10^5 cells), 50 μl of AKR mouse spleen cell suspension (containing 5×10^5 cells) and 100 μl of radicicol solution having each test concentration were added to each well of a 96 well microtiter plate and cultured at 37° C. for 72 hours in a CO2 incubator. A 1.0 μCi portion of [^3 H]-thymidine was added 18 hours before the completion of the culturing. After completion of the culturing, the cells were trapped on a filter paper using a cell harvester and dried, and then a toluene scintillator was added thereto to measure the amount of radioactivity of [^3 H]-thymidine incorporated into cells using a scintillation counter (test group). As a control group, the same culturing was carried out without adding the solution of Compound (I) and then the amount of radioactivity of [^3 H]-thymidine incorporated into cells was measured. The T cell growth inhibition ratio was calculated based on the following formula, from which the concentration of each test compound that inhibits 50% of the growth (IC50 was calculated. [formula] (In the above formula, the radioactivity in MMC-treated AKR mouse means the radiation dose of [^3 H]-thymidine incorporated into MMC-treated AKR mouse spleen cells, and the radioactivity in B10.BR mouse means the radiation dose of [^3 H]-thymidine incorporated into B10.BR mouse lymph node cells.)
# [5] = HeLa S3, 72 hours, 37° C., Neutral Red
SMILES,IC50 (HeLa S3 cells; [5]),MIC [2],IC50 [4],IC50 (T cell growth),other results
CC1CC(OS(=O)OC2CC(C)OC(=O)c3c(O)cc(O)c(Cl)c3CC(=O)C=CC=CC2Cl)C(Cl)C=CC=CC(=O)Cc2c(Cl)c(O)cc(O)c2C(=O)O1 (centres unmarked) [Compound 4],6000 nM,1.3 µg/mL,,,"increased life span (ILS) (P388 leukemia): 42%; T/C (tumor volume ratio) (sarcoma 180 solid tumor): 39%; MIC [1]: 2.6 µg/mL; Minimum growth inhibition concentration (MIC), EH [3]: 2.6 µg/mL"
CON=C1/C=C/C=C\[C@H]2O[C@@H]2C[C@@H](C)OC(=O)c2c(O)cc(O)c(Cl)c2C1 [Compound 9],50 nM,52 µg/mL,< 50 nM,20 nM,MIC [1]: 6.5 µg/mL
C[C@@H]1C[C@@H](O)C(Br)/C=C\C=C\C(=O)Cc2c(Cl)c(O)cc(O)c2C(=O)O1 (some centres unmarked) [Compound 3],,83 µg/mL,,300 nM,increased life span (ILS) (P388 leukemia): 46%
C[C@@H]1C[C@@H](O)C(Cl)/C=C\C=C\C(=O)Cc2c(Cl)c(O)cc(O)c2C(=O)O1 (some centres unmarked) [Compound 2],,,,,T/C (tumor volume ratio) (sarcoma 180 solid tumor): 50%
"C[C@@H]1C[C@H]2O[C@@H]2/C=C\C=C\C(=O)Cc2c(Cl)c(O)cc(O)c2C(=O)O1 [Radicicol, radicicol]",,83 µg/mL,180 nM,150 nM,"IC50 (HeLa S3 cells; HeLa S3, 72 h): 6700 nM; increased life span (ILS) (P388 leukemia): 27%; T/C (tumor volume ratio) (sarcoma 180 solid tumor): 88%; MIC [1]: 20 µg/mL"
C[C@@H]1C[C@H]2O[C@@H]2/C=C\C=C\C(=O)Cc2c(Cl)c(O[Si](C)(C)C(C)(C)C)cc(O[Si](C)(C)C(C)(C)C)c2C(=O)O1 [Compound 10],3200 nM,,150 nM,,
C[C@@H]1C[C@@H](OC=O)C(Cl)/C=C\C=C\C(=O)Cc2c(Cl)c(O)cc(O)c2C(=O)O1 (some centres unmarked) [Compound 1],,83 µg/mL,,,increased life span (ILS) (P388 leukemia): 38%; T/C (tumor volume ratio) (sarcoma 180 solid tumor): 51%
CC(=O)Oc1cc(OC(C)=O)c2c(c1Cl)CC(=O)/C=C/C=C\C(Cl)[C@H](OC=O)C[C@@H](C)OC2=O (some centres unmarked) [Compound 6],5000 nM,,,,
CCCCCCCCCCCCCCCC(=O)Oc1cc(OC(=O)CCCCCCCCCCCCCCC)c2c(c1Cl)CC(=O)/C=C/C=C\C(Br)[C@H](O)C[C@@H](C)OC2=O (some centres unmarked) [Compound 19],,,,150 nM,
COCON=C1/C=C/C=C\[C@H]2O[C@@H]2C[C@@H](C)OC(=O)c2c(O)cc(O)c(Cl)c2C1 [Compound 13],20 nM,,,,
CC(=O)Oc1cc(OC(C)=O)c2c(c1Cl)CC(=O)C=CC=CC(Cl)C(OS(=O)OC1CC(C)OC(=O)c3c(OC(C)=O)cc(OC(C)=O)c(Cl)c3CC(=O)C=CC=CC1Cl)CC(C)OC2=O (centres unmarked) [Compound 7],1500 nM,,,,
C[C@@H]1C[C@H]2O[C@@H]2/C=C\C=C\C(=NO)Cc2c(Cl)c(O)cc(O)c2C(=O)O1 [Compound 8],90 nM,,20 nM,10 nM,
C[C@@H]1C[C@H]2O[C@@H]2/C=C\C=C\C(=NOCCCN=[N+]=[N-])Cc2c(Cl)c(O)cc(O)c2C(=O)O1 [Compound 14],50 nM,,< 50 nM,,
C[C@@H]1C[C@H]2O[C@@H]2/C=C\C=C\C(=NO)Cc2c(Cl)c(O[Si](C)(C)C(C)(C)C)cc(O[Si](C)(C)C(C)(C)C)c2C(=O)O1 [Compound 11],,,20 nM,,"IC50 (HeLa S3 cells; HeLa S3, 72 h): 120 nM"
